Assay results: the supplement of paper PMC9663587

Assays:
LEE011/Ribociclib [1] = compound: T1, CN(C)C(=O)c1cc2cnc(Nc3ccc(N4CCNCC4)cn3)nc2n1C1CCCC1 [LEE011/Ribociclib]; experiment: increase in dead-cell fraction, 72 h; higher = more death;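 further: breast cancer cell lines in 384-well plates, stained with Hoechst plus LIVE/DEAD far red dye and imaged, cells above an LDR intensity threshold counted dead, Hoechst-negative corpses included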
Flavopiridol = compound: CN1CC[C@H](c2c(O)cc(O)c3c(=O)cc(-c4ccccc4Cl)oc23)[C@H](O)C1 [Flavopiridol]; experiment: as above
YKL-5-124 = compound: C=CC(=O)Nc1ccc(C(=O)Nc2[nH]nc3c2CN(C(=O)N[C@H](CN(C)C)c2ccccc2)C3(C)C)cc1 [YKL-5-124]; experiment: as above
BSJ-03-123 = compound: CC(=O)c1c(C)c2cnc(Nc3ccc(N4CCN(CCOCCOCCOCCNC(=O)COc5cccc6c5C(=O)N(C5CCC(=O)NC5=O)C6=O)CC4)cn3)nc2n(C2CCCC2)c1=O [BSJ-03-123]; experiment: as above
THZ531 = compound: CN(C)C/C=C/C(=O)Nc1ccc(C(=O)N2CCC[C@@H](Nc3ncc(Cl)c(-c4c[nH]c5ccccc45)n3)C2)cc1 [THZ531]; experiment: as above
[2] = compound: CCc1cnn2c(NCc3ccc[n+]([O-])c3)cc(N3CCCC[C@H]3CCO)nc12; experiment: as above
[3] = compound: CCN1CCN(Cc2ccc(Nc3ncc(F)c(-c4cc(F)c5nc(C)n(C(C)C)c5c4)n3)nc2)CC1; experiment: as above
[4] = compound: CC(=O)c1c(C)c2cnc(Nc3ccc(N4CCNCC4)cn3)nc2n(C2CCCC2)c1=O; experiment: as above
THZ1 = compound: CN(C)C/C=C/C(=O)Nc1ccc(C(=O)Nc2cccc(Nc3ncc(Cl)c(-c4c[nH]c5ccccc45)n3)c2)cc1 [THZ1]; experiment: as above
Neratinib/HKI272 = compound: CCOc1cc2ncc(C#N)c(Nc3ccc(OCc4ccccn4)c(Cl)c3)c2cc1NC(=O)/C=C/CN(C)C [Neratinib/HKI272]; experiment: as above
LEE011/Ribociclib [5] = compound: T1, LEE011/Ribociclib
Doxorubicin = compound: COc1cccc2c1C(=O)c1c(O)c3c(c(O)c1C2=O)C[C@@](O)(C(=O)CO)C[C@@H]3O[C@H]1C[C@H](N)[C@H](O)[C@H](C)O1 [Doxorubicin]
Ceritinib/LDK378 = compound: Cc1cc(Nc2ncc(Cl)c(Nc3ccccc3S(=O)(=O)C(C)C)n2)c(OC(C)C)cc1C1CCNCC1 [Ceritinib/LDK378]
[6] = compound: Cc1nn(C)c(COc2ccc(N3CCN(S(=O)(=O)N(C)C)CC3)cc2)c1-c1cccc2c(CCCOc3cccc4ccccc34)c(C(=O)O)n(CCN3CCOCC3)c12
[7] = compound: CCc1cnn2c(NCc3ccc[n+]([O-])c3)cc(N3CCCC[C@H]3CCO)nc12
Pictilisib/GDC0941 = compound: CS(=O)(=O)N1CCN(Cc2cc3nc(-c4cccc5[nH]ncc45)nc(N4CCOCC4)c3s2)CC1 [Pictilisib/GDC0941]
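Wherever GR50, 72 h is given: breast cancer and non-malignant breast epithelial cell lines, Deep Dye Drop or Dye Drop imaging, nine half-log doses, GR normalized to time-zero plates and DMSO-only controls.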

HS578T
increase in dead-cell fraction (LEE011/Ribociclib [1]; 0.001 µM): 0.0899
increase in dead-cell fraction (LEE011/Ribociclib [1]; 0.003162 µM): 0.0789
increase in dead-cell fraction (LEE011/Ribociclib [1]; 0.01 µM): 0.105
increase in dead-cell fraction (LEE011/Ribociclib [1]; 0.03162 µM): 0.0986
increase in dead-cell fraction (LEE011/Ribociclib [1]; 0.1 µM): 0.196
increase in dead-cell fraction (LEE011/Ribociclib [1]; 0.3162 µM): 0.2
increase in dead-cell fraction (LEE011/Ribociclib [1]; 1 µM): 0.245
increase in dead-cell fraction (LEE011/Ribociclib [1]; 3.162 µM): 0.248
increase in dead-cell fraction (LEE011/Ribociclib [1]; 10 µM): 0.243
increase in dead-cell fraction (Flavopiridol; 0.0001 µM): 0.0048
increase in dead-cell fraction (Flavopiridol; 0.0003162 µM): -0.0091
increase in dead-cell fraction (Flavopiridol; 0.001 µM): 0.0178
increase in dead-cell fraction (Flavopiridol; 0.003162 µM): -0.0177
increase in dead-cell fraction (Flavopiridol; 0.01 µM): 0.0333
increase in dead-cell fraction (Flavopiridol; 0.03162 µM): -0.0109
increase in dead-cell fraction (Flavopiridol; 0.1 µM): 0.0094
increase in dead-cell fraction (Flavopiridol; 0.3162 µM): 0.0312
increase in dead-cell fraction (Flavopiridol; 1 µM): 0.288
increase in dead-cell fraction (YKL-5-124; 0.001 µM): 0.0377
increase in dead-cell fraction (YKL-5-124; 0.003162 µM): 0.0487
increase in dead-cell fraction (YKL-5-124; 0.01 µM): 0.0429
increase in dead-cell fraction (YKL-5-124; 0.03162 µM): 0.127
increase in dead-cell fraction (YKL-5-124; 0.1 µM): 0.139
increase in dead-cell fraction (YKL-5-124; 0.3162 µM): 0.155
increase in dead-cell fraction (YKL-5-124; 1 µM): 0.13
increase in dead-cell fraction (YKL-5-124; 3.162 µM): 0.125
increase in dead-cell fraction (YKL-5-124; 10 µM): 0.492
increase in dead-cell fraction (BSJ-03-123; 0.001 µM): 0.0192
increase in dead-cell fraction (BSJ-03-123; 0.003162 µM): 0.0459
increase in dead-cell fraction (BSJ-03-123; 0.01 µM): 0.0053
increase in dead-cell fraction (BSJ-03-123; 0.03162 µM): 0.0194
increase in dead-cell fraction (BSJ-03-123; 0.1 µM): 0.0184
increase in dead-cell fraction (BSJ-03-123; 0.3162 µM): 0.0238
increase in dead-cell fraction (BSJ-03-123; 1 µM): 0.034
increase in dead-cell fraction (BSJ-03-123; 3.162 µM): 0.0445
increase in dead-cell fraction (BSJ-03-123; 10 µM): 0.267
increase in dead-cell fraction (THZ531; 0.0001 µM): 0.0179
increase in dead-cell fraction (THZ531; 0.0003162 µM): 0.0236
increase in dead-cell fraction (THZ531; 0.001 µM): -0.0057
increase in dead-cell fraction (THZ531; 0.003162 µM): 0.0346
increase in dead-cell fraction (THZ531; 0.01 µM): -0.004
increase in dead-cell fraction (THZ531; 0.03162 µM): 0.0086
increase in dead-cell fraction (THZ531; 0.1 µM): 0.182
increase in dead-cell fraction (THZ531; 0.3162 µM): 0.2
increase in dead-cell fraction (THZ531; 1 µM): 0.283
increase in dead-cell fraction ([2]; 0.0001 µM): 0.0032
increase in dead-cell fraction ([2]; 0.0003162 µM): -0.0013
increase in dead-cell fraction ([2]; 0.001 µM): 0.0026
increase in dead-cell fraction ([2]; 0.003162 µM): 0.0085
increase in dead-cell fraction ([2]; 0.01 µM): 0.187
increase in dead-cell fraction ([2]; 0.03162 µM): 0.415
increase in dead-cell fraction ([2]; 0.1 µM): 0.441
increase in dead-cell fraction ([2]; 0.3162 µM): 0.423
increase in dead-cell fraction ([2]; 1 µM): 0.443
increase in dead-cell fraction ([3]; 0.001 µM): 0.0038
increase in dead-cell fraction ([3]; 0.003162 µM): 0.0096
increase in dead-cell fraction ([3]; 0.01 µM): 0.0242
increase in dead-cell fraction ([3]; 0.03162 µM): 0.0401
increase in dead-cell fraction ([3]; 0.1 µM): 0.0754
increase in dead-cell fraction ([3]; 0.3162 µM): 0.0958
increase in dead-cell fraction ([3]; 1 µM): 0.171
increase in dead-cell fraction ([3]; 3.162 µM): 0.511
increase in dead-cell fraction ([3]; 10 µM): 0.844
increase in dead-cell fraction ([4]; 0.0003162 µM): -0.0068
increase in dead-cell fraction ([4]; 0.001 µM): 0.0083
increase in dead-cell fraction ([4]; 0.003162 µM): 0.0012
increase in dead-cell fraction ([4]; 0.01 µM): 0.0138
increase in dead-cell fraction ([4]; 0.03162 µM): 0.0151
increase in dead-cell fraction ([4]; 0.1 µM): 0.0427
increase in dead-cell fraction ([4]; 0.3162 µM): 0.052
increase in dead-cell fraction ([4]; 1 µM): 0.0736
increase in dead-cell fraction ([4]; 3.162 µM): 0.116
increase in dead-cell fraction (THZ1; 0.0001 µM): -0.0022
increase in dead-cell fraction (THZ1; 0.0003162 µM): 0.0144
increase in dead-cell fraction (THZ1; 0.001 µM): 0.0176
increase in dead-cell fraction (THZ1; 0.003162 µM): -0.0036
increase in dead-cell fraction (THZ1; 0.01 µM): 0
increase in dead-cell fraction (THZ1; 0.03162 µM): 0.11
increase in dead-cell fraction (THZ1; 0.1 µM): 0.174
increase in dead-cell fraction (THZ1; 0.3162 µM): 0.216
increase in dead-cell fraction (THZ1; 1 µM): 0.22
increase in dead-cell fraction (Neratinib/HKI272; 0.0003162 µM): 0.0023
increase in dead-cell fraction (Neratinib/HKI272; 0.001 µM): 0.0036
increase in dead-cell fraction (Neratinib/HKI272; 0.003162 µM): 0.0026
increase in dead-cell fraction (Neratinib/HKI272; 0.01 µM): 0.0046
increase in dead-cell fraction (Neratinib/HKI272; 0.03162 µM): 0.0039
increase in dead-cell fraction (Neratinib/HKI272; 0.1 µM): 0.0039
increase in dead-cell fraction (Neratinib/HKI272; 0.3162 µM): 0.0303
increase in dead-cell fraction (Neratinib/HKI272; 1 µM): 0.061
increase in dead-cell fraction (Neratinib/HKI272; 3.162 µM): 0.5
GR50, 72 h (LEE011/Ribociclib [5]): 2.33 µM
GR50, 72 h (Doxorubicin): 0.00411 µM
GR50, 72 h (Ceritinib/LDK378): 0.965 µM
GR50, 72 h [6]: > 10 µM
GR50, 72 h [7]: 0.00894 µM
GR50, 72 h (Pictilisib/GDC0941): 1.16 µM
